Patent US10975059B2, “Small molecule BRD4 modulators for HIV epigenetic regulation” (The Board of Regents of The University of Texas System, priority 2017, dated 2021)

Columns and labels:
BRD4 BD1 domain = BRD4 BD1 domain (Homo sapiens, UniProt O60885); assay: TR-FRET binding assay, BRD4 BD1
BRD4 BD2 = BRD4 BD2 (Homo sapiens, UniProt O60885); assay: TR-FRET binding assay, BRD4 BD2
[1] = target: T1, non-BET bromodomain protein CBP (Homo sapiens, UniProt Q92793); assay: TR-FRET binding assay, CBP
T1 construct: purchased Cayman Chemical
T1 sequence (Q92793 1085-1192 limits assumed): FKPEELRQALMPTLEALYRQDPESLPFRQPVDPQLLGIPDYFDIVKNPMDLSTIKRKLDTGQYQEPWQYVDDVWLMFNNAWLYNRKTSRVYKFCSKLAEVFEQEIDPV
Description: A series of concentrations of the compound from 0.01 nM to 100 μM were added into a 384 well test plate and mixed with other reaction components based on the instructions from vendor followed by incubation 1 h at room temperature. […] The plates were read in time-resolved format by exciting the sample at 340 nm and reading emissions at 620 and 670 nm, using a 100 μs delay and a 500 μs window at a Tecan M1000 pro reader.

[2] = system: non-specific cellular proteins; assay: Binding to a broader panel of non-specific cellular proteins
[3] = system: PMA-induced HIV activation in J-Lat cells (10.6); assay: HIV-suppression model, PMA-stimulated J-Lat cells (GFP, flow cytometry); assay type: cell-based; conditions: 24 hours; for effect on PMA-induced HIV activation (GFP+%): PMA + compound 10 μM
[4] = system: HIV transcription in J-Lat cells; assay: qPCR of HIV RNAs (Gag, 3'-LTR) in J-Lat cells; assay type: cell-based; conditions: for HIV mRNAs (Gag and 3'-LTR RNA levels): PMA-activated J-Lat, 24 hours after treatment
[5] = system: HIV (US-1 strain) in human CD4 T cells; assay type: cell-based; conditions: for HIV infection in activated CD4 T cells (intracellular p24): 0-8 μM, three days after viral exposure
HIV in human PBMCs = assay: qPCR of HIV DNA and Gag RNA in in vitro infected PBMCs; assay type: cell-based; conditions: PHA-activated PBMCs, 4 μM
[6] = system: HIV in unactivated human CD4 T cells; assay: HIV in un-activated (resting) CD4 T cells (intracellular p24); assay type: cell-based; conditions: 2 μM and 4 μM, Day 6
Description: We also evaluated the impact of ZL0580 on HIV in un-activated (resting) CD4 T cells. Normal PBMCs were not stimulated but directly infected with HIV by spinoculation. 24 hours after HIV infection, cells were extensively washed and treated with ZL0580 (2 μM and 4 μM) or not (NC). As expected, compared to activated cells, HIV replication kinetics in un-activated CD4 T cells is slower.

human PBMCs = assay type: cell-based
[7] = system: HIV transcription in PBMC of HIV-infected subjects; assay: Ex vivo HIV Gag RNA in PBMCs of viremic HIV-infected subjects (RV21); assay type: cell-based; conditions: 2 days
[8] = system: HIV particles from RV21 PBMC; assay: HIV particles in culture supernatants, reporter TZM-bl assay; assay type: cell-based; conditions: vs no treatment control
Description: We next assessed assess the HIV-suppressive activity of ZL0580 ex vivo. RV21 is ART naïve, chronic HIV infection established by US MHRP and use of PBMC samples from this cohort in our group has been previously published (25). PBMC from RV21 subjects (n=8) were stimulated with PHA to induce HIV transcriptional activation in the absence (0 Mm) or presence of ZL0580 ([…]).

RV254 PBMCs = assay: Viability of RV254 PBMCs; assay type: cell-based, human; conditions: vs ART alone or NC
[9] = system: HIV in BRD4-KO J-Lat cells; assay type: cell-based
ELL2 = ELL2 protein (WB) and mRNA (Q-PCR) in J-Lat cells; assay type: cell-based; conditions: vs PMA alone, WT J-Lat, 24 hours
Description: (§1) Target protein expression in WT and BRD4-KO J-Lat cells (10.6 full length) were measured by western blotting. […] The cells were harvested, washed and then lysed in NP-40 cell lysis buffer (containing 20 mM Tris-HCl, […] of NaCl, 0.2 mM EDTA, 1% NP40, protease inhibitor cocktail, and 1 mM PMSF) by rotation at RT for 1 hour. Cell lysates were centrifuged at 4° C. and the supernatants were collected, followed by measurement of total protein concentration in the supernatants by using Microplate BCA Protein Assay Kit. 20 μg proteins were separated using SDS-PAGE gel and then transferred to Immuno-Blot PVDF Membrane. The membrane was blocked (5% skimmed milk powder in TBST) and then incubated with individual protein-specific antibodies (CDK9, Cyclin T1, Cyclin T2, ELL2, p-RNA Pol II-CTD (Ser2), BRD2, BRD4, NF-κB, or cellular GAPDH) for overnight at 4° C. After washing three times in TBST, the membrane was incubated with anti-rabbit or anti-mouse IgG-HRP, depending on the primary antibody used. The membrane was incubated in Super Signal West Pico Chemiluminescent Substrate. Molecular weights of target proteins were assessed by comparing with markers.

RNAPII = assay: Western blot of phosphorylated RNAPII (Ser 2 CTD) in J-Lat cells; assay type: cell-based; conditions: vs PMA alone
Description: as §1

CDK9 binding to Tat = assay: Tat Co-IP, CDK9 binding, J-Lat cells; assay type: cell-based; conditions: vs PMA alone, 24 hours
Description: Treated J-Lat cells were harvested, washed and lysed in 1 ml NP-40 cell lysis buffer as described above in western blotting. The lysate was cleared by centrifugation and the supernatant was collected. Protein concentration in collected supernatant was measured (Microplate BCA Protein Assay Kit). Equal amounts of proteins from different treatments were incubated with […] of anti-Tat (Thermo Fisher, Cat. No. MA1-71509) or anti-BRD4 (Thermo Fisher, Cat. No. 730037) antibody or normal mouse IgG (Cell Signaling, Cat. No. 5415) for overnight at 4° C. The immune complexes were precipitated by 50 μl protein G-conjugated magnetic beads (Thermo Fisher, Cat. No. 10003D). Beads were washed 6 times using cold NP-40 cell lysis buffer and then subjected to SDS-PAGE electrophoresis. The membranes were immunoblotted with anti-CDK9 primary antibody, followed by incubation with HRP-conjugated secondary antibody.

CDK9 binding to BRD4 = CDK9 binding to BRD4 (Homo sapiens, UniProt O60885); assay: BRD4 Co-IP, CDK9 binding, J-Lat cells; assay type: cell-based; conditions: vs PMA alone, 24 hours
Tat at HIV 5'-LTR = assay: CHIP-qPCR, Tat recruitment to HIV promoter; assay type: cell-based; conditions: J-Lat, 10 μM, 24 hours
Description: ChIP assay was performed using a ChIP-IT Express Kit (Active Modify, USA) according to the manufacturer's instructions. […] Cells were harvested and washed. Cell pellets were re-suspended in 10 ml PBS buffer and fixed with 37% formaldehyde to cross-link DNA and proteins. The fixation reaction was stopped by adding 1.1 ml of 10× Glycine for 5 min at RT. Cells were centrifuged and the supernatants were removed, followed by re-suspension of cells in ice-cold Lysis Buffer on ice for 30 min. Cells were centrifuged at 5,000 rpm for 10 min to pellet the nuclei. Nuclei pellets were re-suspended in 700 μl shearing buffer plus 3.2 μl of PIC and 3.2 μl of PMSF, and were then sonicated using the determined conditions. Sheared chromatin samples were used to set up ChIP reactions by adding the magnetic beads and 5 μg of anti-Tat (1 mg/ml, Thermo Fisher, MA1-71509) or control mouse IgG (2.5 mg/ml, Cell Signaling, #5415) antibody (overnight rotation at 4° C.). After several times of washing by ChIP buffers 2, the chromatin was reverse cross-linked and treated with proteinase K. The eluted DNA were cleaned up with phenol-chloroform and used in real time-PCR. The results were analyzed by the fold enrichment method with the formula % enrichment=2−(CT IP−CT mock).

BRD4 at HIV 5'-LTR = assay: CHIP-qPCR, BRD4 binding to HIV promoter; assay type: cell-based; conditions: activated and resting J-Lat, vs no compound control
[10] = system: HIV LTR chromatin in J-Lat cells; assay: High-resolution MNase nucleosomal mapping of HIV LTR; assay type: cell-based; conditions: 10 μM 24 hours, then PMA 24 hours, vs NC
J-Lat cells = assay: J-Lat cell viability (Aqua blue, flow cytometry)
[11] = system: BD1 and BD2 of BET proteins (BRD4, BRD2, BRD3, BRDT); assay: TR-FRET binding to BD1 and BD2 of BET proteins
Description: Details are available in the Supplementary Methods.

[12] = system: latent HIV in J-Lat cells (10.6); assay: HIV-activation screening in J-Lat cells (GFP, flow cytometry); assay type: cell-based; conditions: compound alone, 10 μM, 24 hours

## O=C(Nc1ccc(C(F)(F)F)cc1)Nc1ccc(S(=O)(=O)N2CCCC2C(=O)Nc2ccccc2)cc1 (stereo in doubt) [ZL0580, (R)—N-Phenyl-1-((4-(3-(4-(trifluoromethyl)phenyl)ureido)phenyl)sulfonyl)pyrrolidine-2-carboxamide]
BRD4 BD1 domain
  IC50: 163 nM
BRD4 BD2
  IC50: 1070 nM
[1]
  IC50: > 10000 nM
[2]
  binding activity to non-specific cellular proteins: no or weak binding activity
[3]; PMA + 0, 1, 10, 20 μM
  dose dependence of suppression of PMA-induced HIV activation: suppresses PMA-induced HIV activation in dose-dependent manner
[3]
  effect on PMA-induced HIV activation (GFP+%): suppresses PMA-induced HIV activation
[4]
  HIV mRNAs (Gag and 3'-LTR RNA levels): reduces both Gag and 3′-LTR RNA levels
[4]; resting J-Lat, single dose 10 μM for 3 days, then SAHA or Prostratin
  HIV reactivation by LRAs after pre-treatment: renders J-Lat cells more resistant to HIV reactivation by SAHA or Prostratin
[4]; single treatment 10 μM, PMA-activated or resting, Day 2, 7, 14
  kinetics of HIV transcription (3'-LTR RNA): suppresses both PMA-stimulated and basal HIV transcription through Day 14 after treatment
[5]
  HIV infection in activated CD4 T cells (intracellular p24): suppress HIV in activated human CD4 T cells in a dose-dependent manner
[5]; single treatment 8 μM
  productive HIV infection in CD4 T cells: almost complete loss of productive HIV infection in CD4 T cells
HIV in human PBMCs
  HIV transcription (Gag RNA) in PBMCs: reduced HIV transcription in PBMCs
  cell-associated HIV DNA: did not significantly alter HIV DNA levels
[6]
  HIV in unactivated CD4 T cells (p24+%): dose-dependently suppresses HIV in unactivated CD4 T cells
Human PBMCs; 0-80 μM
  concentrations without significant PBMC death: below 40 μM
Human PBMCs; 8 μM vs NC, PHA-activated, 3 days
  PBMC viability: comparable between NC and ZL0580 treatment
[7]; PHA-stimulated RV21 PBMC (n=8)
  HIV Gag mRNA ex vivo: suppress HIV transcription ex vivo in all eight PBMC samples
[7]; PHA-stimulated RV21 PBMC
  reduction of RNA levels in some subjects: greater than 10 fold
[8]
  production of HIV particles in cell culture supernatants: significantly reduced
RV254 PBMCs
  toxicity to RV254 PBMCs: did not cause significant toxicity to these cells
[9]
  Gag and 3'-LTR RNA expression, vector control cells: substantially inhibit Gag and 3′-LTR RNA expression
  HIV suppression (GFP) in BRD4-KO cells: failed to induce HIV suppression in BRD4-KO cells
  HIV suppression in BRD4-KO cells with exogenous BRD4 expression: restored to large extent the ability of ZL0580 to suppress HIV in these cells
  inhibition of Gag and 3'-LTR RNA, BRD4-KO cells: largely abrogated in the BRD4-KO cells
ELL2
  ELL2 protein: substantially reduced ELL2 protein
RNAPII
  RNAPII activation (phosphorylation of CTD Ser2): reduced RNAII activation
CDK9 binding to Tat
  CDK9 binding to Tat: reduced CDK9 binding to Tat
CDK9 binding to BRD4
  CDK9 binding to BRD4: enhanced CDK9 binding to BRD4
Tat at HIV 5'-LTR
  recruitment of Tat to HIV promoter: reduced Tat recruitment to HIV promoter
BRD4 at HIV 5'-LTR
  BRD4 binding to HIV promoter: promoted BRD4 binding to HIV promoter
[10]
  nucleosomal DNA protection in HIV LTR: enhanced nucleosomal DNA protection in the majority of amplicon regions (6-20)
J-Lat cells; 0-80 μM, 1 & 3 days
  concentrations without significant cell death: below 40 μM
J-Lat cells; 10 μM, Day 2, 7 and 14, PMA-activated and un-stimulated
  cell death vs NC: did not cause significant cell death

## Cc1sc2c(c1C)C(c1ccc(Cl)cc1)=N[C@@H](CC(=O)OC(C)(C)C)c1nnc(C)n1-2 [JQ1, reference compound]
[11]
  binding to BD1 and BD2 of BET proteins: non-selectively binds to both BD1 and BD2 all four BET proteins
[12]
  activation of latent HIV (GFP expression): activates HIV
[3]
  effect on PMA-induced HIV activation (GFP+%): synergistically enhances PMA-stimulated HIV activation
[4]
  HIV mRNAs (Gag and 3'-LTR RNA levels): enhances their levels
ELL2
  ELL2 protein: increased its level
RNAPII
  RNAPII activation (phosphorylation of CTD Ser2): potentiated its activation
CDK9 binding to Tat
  CDK9 binding to Tat: enhanced CDK9 binding to Tat
Tat at HIV 5'-LTR
  recruitment of Tat to HIV promoter: enhanced binding of Tat to HIV promoter
BRD4 at HIV 5'-LTR
  BRD4 binding to HIV promoter: reduced this binding
[10]
  nucleosomal DNA protection in HIV LTR: reduced nucleosomal DNA protection in several amplicon regions

## Cc1cc(N=Nc2ccc(S(=O)(=O)NC3CCCC3)cc2)c(N)cc1O [ZL0454]
[12]
  activation of latent HIV (GFP expression): modestly activate HIV
[3]
  effect on PMA-induced HIV activation (GFP+%): synergistically enhanced PMA-induced HIV activation
[5]
  HIV infection in activated CD4 T cells (intracellular p24): did not suppress HIV in CD4 T cells

## COC(=O)[C@@H]1CCCN1S(=O)(=O)c1ccc(NC(=O)Nc2cccc(C(F)(F)F)c2)cc1 [ZL0506]
[3]
  effect on PMA-induced HIV activation (GFP+%): modestly suppress HIV
